Reference: PubChem BioAssay (NCI)
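Step 1: Grow cells in 96-well plates. Step 2: Expose to compound for 48 hours at 5 concentrations. Step 3: Interpolate endpoints linearly; if unreached, use highest concentration. GI50 = concentration required for 50% inhibition of growth. TGI is the concentration that stops growth completely.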

Key:
Assay in all cases: growth of human tumour cells (NCI), 48 h
[1] = system: 786-0 renal
[2] = system: A498 renal
[3] = system: A549 NSCLC
[4] = system: ACHN renal
[5] = system: BT-549 breast
[6] = system: CAKI-1 renal
[7] = system: CCRF-CEM leukemia
[8] = system: COLO 205 colon
[9] = system: DU-145 prostate
[10] = system: EKVX NSCLC
[11] = system: HCC-2998 colon
[12] = system: HCT-116 colon
[13] = system: HCT-15 colon
[14] = system: HL-60(TB) leukemia
[15] = system: HOP-62 NSCLC
[16] = system: HOP-92 NSCLC
[17] = system: HS 578T breast
[18] = system: HT29 colon
[19] = system: IGROV1 ovarian
[20] = system: K-562 leukemia
[21] = system: KM12 colon
[22] = system: LOX IMVI melanoma
[23] = system: M14 melanoma
[24] = system: MALME-3M melanoma
[25] = system: MCF7 breast
[26] = system: MDA-MB-231 breast
[27] = system: MDA-MB-435
[28] = system: MDA-MB-468 breast
[29] = system: MOLT-4 leukemia
[30] = system: NCI-H226 lung
[31] = system: NCI-H23 lung
[32] = system: NCI-H460 lung
[33] = system: NCI-H522 lung
[34] = system: NCI/ADR-RES ovarian
[35] = system: OVCAR-3 ovarian
[36] = system: OVCAR-4 ovarian
[37] = system: OVCAR-5 ovarian
[38] = system: OVCAR-8 ovarian
[39] = system: PC-3 prostate
[40] = system: RPMI-8226 leukemia
[41] = system: RXF 393 renal
[42] = system: SF-268 CNS
[43] = system: SF-295 CNS
[44] = system: SF-539 CNS
[45] = system: SK-MEL-2 melanoma
[46] = system: SK-MEL-28 melanoma
[47] = system: SK-MEL-5 melanoma
[48] = system: SK-OV-3 ovarian
[49] = system: SN12C renal
[50] = system: SNB-19 CNS
[51] = system: SNB-75 CNS
[52] = system: SR leukemia
[53] = system: SW-620 colon
[54] = system: T-47D breast
[55] = system: TK-10 renal
[56] = system: U251 CNS
[57] = system: UACC-257 melanoma
[58] = system: UACC-62 melanoma
[59] = system: UO-31 renal

## O=C(CNc1nc(-c2ccccc2)cs1)Nc1cccc([N+](=O)[O-])c1
[1]
  GI50: 253 nM
  TGI: 663 nM
[2]
  GI50: 223 nM
  TGI: 555 nM
[3]
  GI50: 323 nM
  TGI: 1390 nM
[4]
  GI50: 200 nM
  TGI: 436 nM
[5]
  GI50: 167 nM
  TGI: 347 nM
[6]
  GI50: 182 nM
  TGI: 558 nM
[7]
  GI50: 58.7 nM
  TGI: 4520 nM
[8]
  GI50: 193 nM
  TGI: 367 nM
[9]
  GI50: 264 nM
  TGI: 730 nM
[10]
  GI50: 231 nM
  TGI: 580 nM
[11]
  GI50: 175 nM
  TGI: 321 nM
[12]
  GI50: 188 nM
  TGI: 590 nM
[13]
  GI50: 93 nM
  TGI: 413 nM
[14]
  GI50: 198 nM
  TGI: 937 nM
[15]
  GI50: 216 nM
  TGI: 469 nM
[16]
  GI50: 243 nM
  TGI: 660 nM
[17]
  GI50: 230 nM
  TGI: 739 nM
[18]
  GI50: 142 nM
  TGI: 357 nM
[19]
  GI50: 108 nM
  TGI: 459 nM
[20]
  GI50: 223 nM
  TGI: 11200 nM
[21]
  GI50: 246 nM
  TGI: 693 nM
[22]
  GI50: 106 nM
  TGI: 238 nM
[23]
  GI50: 177 nM
  TGI: 347 nM
[24]
  GI50: 172 nM
  TGI: 314 nM
[25]
  GI50: 166 nM
  TGI: 551 nM
[26]
  GI50: 196 nM
  TGI: 375 nM
[27]
  GI50: 170 nM
  TGI: 319 nM
[28]
  GI50: 185 nM
  TGI: 358 nM
[29]
  GI50: 117 nM
  TGI: 2530 nM
[30]
  GI50: 188 nM
  TGI: 444 nM
[31]
  GI50: 72.4 nM
  TGI: 202 nM
[32]
  GI50: 136 nM
  TGI: 616 nM
[33]
  GI50: 129 nM
  TGI: 297 nM
[34]
  GI50: 175 nM
  TGI: 381 nM
[35]
  GI50: 251 nM
  TGI: 708 nM
[36]
  GI50: 223 nM
  TGI: 511 nM
[37]
  GI50: 203 nM
  TGI: 413 nM
[38]
  GI50: 222 nM
  TGI: 568 nM
[39]
  GI50: 217 nM
  TGI: 1860 nM
[40]
  GI50: 291 nM
  TGI: 1230 nM
[41]
  GI50: 128 nM
  TGI: 269 nM
[42]
  GI50: 257 nM
  TGI: 725 nM
[43]
  GI50: 223 nM
  TGI: 519 nM
[44]
  GI50: 180 nM
  TGI: 358 nM
[45]
  GI50: 177 nM
  TGI: 323 nM
[46]
  GI50: 199 nM
  TGI: 379 nM
[47]
  GI50: 166 nM
  TGI: 302 nM
[48]
  GI50: 128 nM
  TGI: 335 nM
[49]
  GI50: 184 nM
  TGI: 469 nM
[50]
  GI50: 206 nM
  TGI: 500 nM
[51]
  GI50: 136 nM
  TGI: 320 nM
[52]
  GI50: 175 nM
  TGI: > 34900 nM
[53]
  GI50: 66.3 nM
  TGI: 914 nM
[54]
  GI50: 218 nM
  TGI: 632 nM
[55]
  GI50: 197 nM
  TGI: 660 nM
[56]
  GI50: 262 nM
  TGI: 927 nM
[57]
  GI50: 256 nM
  TGI: 826 nM
[58]
  GI50: 119 nM
  TGI: 245 nM
[59]
  GI50: 169 nM
  TGI: 444 nM

## CCOC(=O)C(Cc1ccccc1)N1C(=O)/C(=C/N2N=C(c3ccc(OC)cc3)CC2c2ccc3ccccc3c2)SC1=S (stereo unspecified)
[1]
  GI50: 5310 nM
  TGI: 27900 nM
[2]
  GI50: 5080 nM
  TGI: 19500 nM
[3]
  GI50: 7080 nM
  TGI: 27300 nM
[4]
  GI50: 4860 nM
  TGI: 21700 nM
[5]
  GI50: 5790 nM
  TGI: 19800 nM
[6]
  GI50: 3760 nM
  TGI: 21700 nM
[7]
  GI50: 3270 nM
  TGI: > 100000 nM
[8]
  GI50: 3090 nM
  TGI: 14700 nM
[9]
  GI50: 11200 nM
  TGI: 36500 nM
[10]
  GI50: 2460 nM
  TGI: 11500 nM
[11]
  GI50: 3050 nM
  TGI: 10200 nM
[12]
  GI50: 3300 nM
  TGI: 17400 nM
[13]
  GI50: 2600 nM
  TGI: 10400 nM
[14]
  GI50: 3540 nM
  TGI: 16500 nM
[15]
  GI50: 3820 nM
  TGI: 19600 nM
[16]
  GI50: 2650 nM
  TGI: 12100 nM
[17]
  GI50: 2620 nM
  TGI: 16600 nM
[18]
  GI50: 3290 nM
  TGI: 13500 nM
[19]
  GI50: 4090 nM
  TGI: 15600 nM
[20]
  GI50: 3690 nM
  TGI: > 100000 nM
[21]
  GI50: 3540 nM
  TGI: 13300 nM
[22]
  GI50: 2800 nM
  TGI: 10800 nM
[23]
  GI50: 4490 nM
  TGI: 41700 nM
[24]
  GI50: 3240 nM
  TGI: 13600 nM
[25]
  GI50: 2350 nM
  TGI: 7630 nM
[26]
  GI50: 4290 nM
  TGI: 17900 nM
[27]
  GI50: 3570 nM
  TGI: 17800 nM
[28]
  GI50: 2330 nM
  TGI: 7250 nM
[29]
  GI50: 3450 nM
  TGI: > 100000 nM
[30]
  GI50: 2560 nM
  TGI: 12800 nM
[31]
  GI50: 3470 nM
  TGI: 14500 nM
[32]
  GI50: 3190 nM
  TGI: 13800 nM
[33]
  GI50: 2490 nM
  TGI: 8880 nM
[34]
  GI50: 14100 nM
  TGI: 91300 nM
[35]
  GI50: 3210 nM
  TGI: 11700 nM
[36]
  GI50: 6630 nM
  TGI: 40100 nM
[37]
  GI50: 13600 nM
  TGI: 27200 nM
[38]
  GI50: 3570 nM
  TGI: 15300 nM
[39]
  GI50: 3780 nM
  TGI: 40900 nM
[40]
  GI50: 2790 nM
  TGI: > 100000 nM
[41]
  GI50: 2220 nM
  TGI: 6360 nM
[42]
  GI50: 3470 nM
  TGI: 22900 nM
[43]
  GI50: 2110 nM
  TGI: 7210 nM
[44]
  GI50: 3210 nM
  TGI: 10400 nM
[45]
  GI50: 2180 nM
  TGI: 5030 nM
[46]
  GI50: 3500 nM
  TGI: 13100 nM
[47]
  GI50: 2240 nM
  TGI: 5510 nM
[48]
  GI50: 5280 nM
  TGI: 20600 nM
[49]
  GI50: 3340 nM
  TGI: 13200 nM
[50]
  GI50: 3350 nM
  TGI: 16400 nM
[51]
  GI50: 2150 nM
  TGI: 19300 nM
[52]
  GI50: 7100 nM
  TGI: > 100000 nM
[53]
  GI50: 2570 nM
  TGI: 17000 nM
[54]
  GI50: 3060 nM
  TGI: 34100 nM
[55]
  GI50: 4970 nM
  TGI: 19000 nM
[56]
  GI50: 3260 nM
  TGI: 20400 nM
[57]
  GI50: 5440 nM
  TGI: 23100 nM
[58]
  GI50: 2330 nM
  TGI: 6970 nM
[59]
  GI50: 4860 nM
  TGI: 18500 nM
